The SangsterLogP compilation

Assay: method code SF-AS, from PMID: 4730594
Settings: pH 7.0

| logD | SMILES |
| --- | --- |
| 2.08 | CCCCc1ccc2c(c1)c([N+](=O)[O-])cc[n+]2[O-] |
| 1.33 | O=[N+]([O-])c1c(Cl)c[n+]([O-])c2ccccc12 |
| 0.36 | O=[N+]([O-])c1ccc2ccc[n+]([O-])c2c1 |
| 1 | O=[N+]([O-])c1cc[n+]([O-])c2c(F)cccc12 |
| 1.36 | Cc1cccc2c1c([N+](=O)[O-])cc[n+]2[O-] |
| 0.56 | O=[N+]([O-])c1cc2ccccc2[n+]([O-])c1 |
| 0.39 | O=[N+]([O-])c1ccc2c(ccc[n+]2[O-])c1 |
| 0.49 | O=[N+]([O-])c1cccc2c1ccc[n+]2[O-] |
| 0 | O/N=c1/ccn(O)c2ccccc12 |
| -0.47 | O=c1ccn(O)c2ccccc12 |
| 1.41 | O=[N+]([O-])c1cc[n+]([O-])c2ccc(Cl)cc12 |
| 1.04 | CC(=O)ON=c1ccn(OC(C)=O)c2ccccc12 |
| 0.12 | CS(=O)(=O)c1cc[n+]([O-])c2ccccc12 |
| 1.08 | [O-][n+]1ccc(Cl)c2ccccc21 |
| 0.95 | O=[N+]([O-])c1cccc2c1c([N+](=O)[O-])cc[n+]2[O-] |
| 1.42 | Cc1ccc2c([N+](=O)[O-])cc[n+]([O-])c2c1 |
| 0.04 | O=[N+]([O-])c1cccc2ccc[n+]([O-])c12 |
| 1.43 | Cc1ccc2c(c1)c([N+](=O)[O-])cc[n+]2[O-] |
| 1.51 | CC(C)(C)c1ccc2c(c1)c([N+](=O)[O-])cc[n+]2[O-] |
| 0.97 | CC(=O)ONc1ccnc2ccccc12 |
| 1.59 | Cc1cccc2c([N+](=O)[O-])cc[n+]([O-])c12 |
| 0.76 | O=[N+]([O-])c1cc[n+]([O-])c2c([N+](=O)[O-])cccc12 |
| -0.11 | NC(=O)Cc1cc[n+]([O-])c2ccccc12 |
| 0.9 | O=[N+]([O-])c1ccc2c(c1)c([N+](=O)[O-])cc[n+]2[O-] |

| SMILES | logD |
| --- | --- |
| O=[N+]([O-])c1cc[n+]([O-])c2ccccc12 | 1.02 |
| Cc1c[n+]([O-])c2ccccc2c1[N+](=O)[O-] | 1.06 |
| Cc1cc([N+](=O)[O-])c2ccccc2[n+]1[O-] | 1.25 |
